Structures are written as SMILES.

Here are results for 57 compounds from the OPERA property sets (Mansouri et al. 2018).

In the case of `CC(C)=CCN1CC[C@@]2(C)c3cc(O)ccc3C[C@@H]1[C@@H]2C`, the melting point came out at 146 °C.
On the same count and under the same terms, with `CN(C)c1ccc(C=Cc2ccccc2)cc1` the figure was 150 °C.
Turning to `C1=CCCC1`, the boiling point came to 44.2 °C, the log10 vapour pressure (mmHg) was determined as 2.58, the melting point was -135 °C and the ready biodegradability result is recorded as “readily biodegradable”.
For the compound `CCCCC(CC)COC(=O)CC(C(=O)OCC(CC)CCCC)S(=O)(=O)[O-].[Na+]` (centres undefined), the melting point turned out to be 176 °C.
Consider `CC(=O)CCc1ccco1`, for which the boiling point amounted to 203 °C.
With `NC(=O)Nc1ccc(Br)cc1`, the boiling point came to 260 °C, the log10 Koc (L/kg) was determined as 2.06 and the melting point came out at 226 °C.
Regarding `CC1(C)COC(=O)C1O` (centres undefined), the melting point worked out at 92 °C and the ready biodegradability result was “readily biodegradable”.
The compound `CC(C)CC(C)(C)C(C)C` had a boiling point of 153 °C.
Take `CCOC(=S)SSC(=S)OCC`: the melting point stood at 30 °C.
For `C1COCCN1`, the boiling point turned out to be 128 °C, the log10 vapour pressure (mmHg) was found to be 1, the melting point was -4.9 °C and the ready biodegradability entry is given as “not readily biodegradable”.
As to `CC(C)C[C@H](N)C(=O)O`, the melting point worked out at 293 °C.
On the same count and under the same terms, with `Nc1ccc2c(c1N)C(=O)c1ccccc1C2=O` the figure was 290 °C.
Consider `Cc1ccc2c(c1)CCC2`, for which the boiling point was found to be 202 °C and the log10 biodegradation half-life (days) was 0.301.
Turning to `CC(C)NC(=O)COC(=O)c1ccccc1`, the melting point turned out to be 130 °C.
The compound `O=S(=O)(Cl)c1cccc2ccccc12` had a melting point of 68 °C.
`OCC1CCC(CO)CC1` (centres undefined): the boiling point amounted to 285 °C, the log10 vapour pressure (mmHg) is -3.51 and the melting point turned out to be 51 °C.
In the case of `N#CCc1ccccc1C(F)(F)F`, the melting point was determined as 33 °C.
In turn, `CC1=CC[C@@H]2CC1OC2(C)C` had a boiling point of 184 °C.
As for `CCCCCCCCCCCCCCCCCC(=O)OCC(O)CO` (centres undefined), the melting point amounted to 74 °C and the ready biodegradability entry is “readily biodegradable”.
For the compound `CC(=O)OCCN(CCOC(C)=O)c1ccc(N=Nc2nc3ccc(Cl)cc3s2)c(NC(=O)c2ccccc2)c1`, the ready biodegradability result is on record as “not readily biodegradable”.
Turning to `COCC(=O)OC`, the boiling point came to 131 °C.
Regarding `NC(=O)NNc1ccccc1`, the melting point is 172 °C.
Compound `NC(=O)c1cccnc1` registered a melting point of 130 °C.
As for `COc1ccc(C(=O)c2ccccc2C(=O)O)cc1`, the melting point was 146 °C.
`NCc1ccccn1` yielded a boiling point of 203 °C.
The compound `Cc1[nH]c(C)c(C)c1C` showed a melting point of 111 °C.
Same read-out and setting: the same measure for `O=S(=O)(Sc1ccccc1)c1ccc(Cl)cc1`: -86.8 °C.
The compound `BrCCI` returned a boiling point of 163 °C and a melting point of 28 °C.
In the case of `CC(=O)OC[C@]12C[C@H](OC(=O)CC(C)C)C(C)=C[C@H]1O[C@@H]1[C@H](O)[C@@H](OC(C)=O)[C@@]2(C)[C@]12CO2`, the melting point is 152 °C.
`Cc1cc(N)ccc1N=Nc1ccc([N+](=O)[O-])cc1` showed a log10 vapour pressure (mmHg) of -9.15.
For `O=C(CCCN1CCC(n2c(=S)[nH]c3ccccc32)CC1)c1ccc(F)cc1`, the melting point was 202 °C.
Same read-out and setting: with `CCOC(=O)CC(=O)CCl` the figure was -8 °C.
Regarding `CCCOC(=O)N1CCNCC1`, the ready biodegradability result is reported as “readily biodegradable”.
Compound `O=[N+]([O-])c1ccc2c(c1)oc1ccccc12` yielded a melting point of 182 °C.
Turning to `Cc1cc(Cl)ccc1O`, the boiling point was 209 °C, the log10 vapour pressure (mmHg) is -1.62, the melting point came out at 51 °C and the ready biodegradability result is “not readily biodegradable”.
For `Cc1ccc(Cl)cc1` the same measures were 162 °C, 0.43, 7.5 °C and “not readily biodegradable”.
`O=P([O-])([O-])O[C@@H]1[C@@H](O)[C@H](O)[C@@H](O)[C@H](O)[C@@H]1O` had a melting point of 195 °C.
For `CC(C)CC(=O)CC(C)C`, the boiling point was 169 °C, the log10 vapour pressure (mmHg) amounted to 0.217 and the melting point is -41.5 °C.
In the case of `CCCCCCCCCCCCCCCCOCCCCCCCCCCCCCCCC`, the melting point came out at 55 °C and the ready biodegradability result is listed as “not readily biodegradable”.
Take `C=Cc1scnc1C`: the melting point was -15 °C.
For the compound `Clc1cc2c(cc1Cl)Oc1c(Cl)c(Cl)cc(Cl)c1O2`, the log10 vapour pressure (mmHg) is -9.23 and the melting point came out at 206 °C.
In the case of `O=C=NCCCCCCN=C=O`, the boiling point is 255 °C and the melting point is -67 °C.
The compound `CCOC(=O)c1cc2ccccc2[nH]1` returned a melting point of 124 °C.
As to `Cc1ccc([N+](=O)[O-])c(C)c1`, the boiling point turned out to be 247 °C, the log10 vapour pressure (mmHg) was -1.24 and the melting point came out at 9 °C.
For `CCC(C)n1c(=O)[nH]c(C)c(Br)c1=O` (centres undefined), the log10 Koc (L/kg) worked out at 1.6, the log10 vapour pressure (mmHg) is -6.51 and the melting point is 158 °C.
In turn, `Nc1ccccc1[N+](=O)[O-]` showed a boiling point of 284 °C, a log10 Henry constant (atm·m³/mol) of -7.23, a log10 vapour pressure (mmHg) of -2.56 and a melting point of 71 °C. Moreover, the ready biodegradability entry is recorded as “not readily biodegradable”.
Consider `O=C(O)[C@H](O)[C@@H](O)[C@H](O)[C@H](O)CO`, for which the melting point came out at 131 °C.
On the same count and under the same terms, with `O=C1C=CCO1` the figure was 4.5 °C.
Regarding `CCc1ccccc1[N+](=O)[O-]`, the boiling point worked out at 232 °C, the melting point was -12.3 °C and the ready biodegradability entry is listed as “not readily biodegradable”.
`CCc1ccnc(C)c1` yielded a boiling point of 179 °C.
Compound `CCOC(=O)[C@@H](N)CS.Cl` returned a melting point of 124 °C.
Regarding `Clc1ccc(-c2cc(Cl)ccc2Cl)cc1`, the log10 Henry constant (atm·m³/mol) was -3.72, the log10 Koa amounted to 7.92 and the log10 vapour pressure (mmHg) is -3.4.
Turning to `c1cncnc1`, the boiling point stood at 124 °C, the melting point was determined as 22 °C and the ready biodegradability result is listed as “not readily biodegradable”.
Compound `CCCCC(=O)Cl` returned a boiling point of 109 °C and a melting point of -110 °C.
In the case of `O=C(O)c1cc(Br)ccc1Br`, the melting point worked out at 157 °C.
Regarding `CCCCCOC(=O)Nc1ccccc1`, the log10 Koc (L/kg) is 2.61.
The compound `CC(C)CC=O` came in with a boiling point of 92.5 °C, a log10 vapour pressure (mmHg) of 1.7 and a melting point of -51 °C.

By melting point is commonly meant the temperature of the solid-liquid transition. As a reminder, the boiling point is the temperature of boiling at a given pressure.
